Like-named read-outs stand apart in the source and are kept apart here.

The target in assay [1] is T1, EGFR kinase (Homo sapiens, UniProt P00533).
T1 construct: EGFR kinase domain alone, Millipore; purchased Millipore
In words: EGFR radiometric kinase assay. Format: biochemical. The conditions noted are these: 100 μM ATP, read-out: Inhibition activity, IC50 EGFR. The protocol: (§1) The inhibitory activity against VEGFR2 or EGFR was determined by radiometric kinase assay. The experimental condition for VEGFR2 kinase assay was 6.25 ng of recombinant VEGFR2 kinase (VEGFR2 kinase domain alone, Millipore), 5 μg of substrate Poly(Glu-Tyr) (4:1, Sigma), kinase reaction buffer (20 mM MOPS pH 7.0, 1 mM EDTA, 5% glycerol, 0.01% Brij-35, 0.1% β-mercaptoethanol, 1 mg/mL BSA, 100 μM ATP, and 0.1 μCi per well [^33P] ATP (specific activity 3000 Ci/mmol, PerkinElmer)), and the test compound (diluted with 4% DMSO) or DMSO alone (as a control) in a final volume of 25 μL. Reactions were incubated at 30° C. for 30 min and stopped by adding 3% phosphoric acid, harvested onto a 96-well GF/B UniFilter (PerkinElmer) using a unifilter harvester (PerkinElmer), and counted with a TopCount microplate scintillation counter (PerkinElmer).
The experimental condition for EGFR kinase assay was 25 ng of EGFR kinase (EGFR kinase domain alone, Millipore), 3 μg of the substrate poly(Glu-Tyr), (Sigma), kinase reaction buffer (10 mM MOPS pH 7.0, 0.3 mM EDTA, 0.5% glycerol, 0.001% Brij-35, 10 mM MnCl2, 0.1 mg/ml BSA, 100 μM ATP, and 0.1 μCi per well [^33P]ATP (specific activity 3000 Ci/mmol, PerkinElmer)), and the test compound (diluted with 4% DMSO) or DMSO (as a control) in a final volume of 25 μL. Reactions were incubated at 30° C. for 30 min and stopped by adding 3% phosphoric acid, harvested onto a 96-well GF/B UniFilter (PerkinElmer) using a unifilter harvester (PerkinElmer), and counted with a TopCount microplate scintillation counter (PerkinElmer).
(§2) Results of inhibition activity against VEGFR2 and EGFR kinases by the selected compounds, which have IC50 values on B-Raf kinase <300 nM, are summarized in Table 6.

Assay [2] concerns the target T2, VEGFR2 kinase (Homo sapiens, UniProt P35968).
T2 construct: VEGFR2 kinase domain alone, Millipore; purchased Millipore
The experiment in a line: VEGFR2 radiometric kinase assay. In kind it is biochemical. The conditions noted are these: given as bound; 100 μM ATP; read-out: Inhibition activity, IC50 VEGFR2. The protocol:
as §1, §2

Assay [3] deals with T3, B-Raf(V600E) kinase (Homo sapiens, UniProt P15056, V600E).
T3 construct: purchased Upstate Biotechnology
T3 sequence (P15056 whole entry V600E): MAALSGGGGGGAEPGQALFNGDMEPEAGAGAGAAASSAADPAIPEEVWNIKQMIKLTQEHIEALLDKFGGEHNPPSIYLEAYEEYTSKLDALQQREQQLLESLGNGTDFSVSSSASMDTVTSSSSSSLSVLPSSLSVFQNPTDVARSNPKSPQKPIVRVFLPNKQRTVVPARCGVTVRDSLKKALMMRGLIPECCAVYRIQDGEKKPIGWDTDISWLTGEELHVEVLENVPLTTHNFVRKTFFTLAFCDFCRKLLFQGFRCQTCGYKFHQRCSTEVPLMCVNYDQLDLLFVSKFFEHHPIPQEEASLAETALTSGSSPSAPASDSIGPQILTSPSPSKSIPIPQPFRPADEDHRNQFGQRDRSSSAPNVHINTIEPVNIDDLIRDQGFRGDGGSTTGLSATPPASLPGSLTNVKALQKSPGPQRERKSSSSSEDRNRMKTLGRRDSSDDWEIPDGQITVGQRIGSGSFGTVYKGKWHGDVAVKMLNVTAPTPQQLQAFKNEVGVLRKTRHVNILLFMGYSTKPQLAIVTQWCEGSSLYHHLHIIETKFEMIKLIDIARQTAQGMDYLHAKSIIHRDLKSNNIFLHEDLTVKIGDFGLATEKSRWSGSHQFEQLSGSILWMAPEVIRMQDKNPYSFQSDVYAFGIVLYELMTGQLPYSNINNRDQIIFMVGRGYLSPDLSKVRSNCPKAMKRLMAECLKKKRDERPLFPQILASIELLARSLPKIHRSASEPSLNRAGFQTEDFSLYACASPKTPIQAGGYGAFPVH
The experiment in a line: B-Raf(V600E) kinase assay ([33P] incorporation into MEK1(K97R)). Format: biochemical. The following applies: class symbols; 8 μM ATP; read-out: IC50 against B-Raf(V600E) kinase. As for the experimental part:
(§3) Inhibition of kinase activity by a test compound disclosed herein was estimated by quantifying the amount of [^33P] incorporation of a substrate in the presence of the test compound. Standard assay conditions were 5 ng of recombinant B-Raf(V600E) kinase (Upstate Biotechnology) with 500 ng MEK1 (K97R) in assay buffer (8 μM ATP, 0.5 μCi [^33P] ATP (specific activity 3000 Ci/mmol, PerkinElmer), 50 mM Tris/HCl (pH7.5), and 1 mM EGTA, 1 mM Na3VO4, 1% 2-mercaptoethanol, 0.1% Brij 35, and 0.2 mg/ml BSA), and the test compound (diluted with 4% DMSO) or DMSO alone (as a control) in a final volume of 25 μL. Reactions were incubated at 30° C. for 30 min and stopped by adding 3% phosphoric acid, harvested onto a 96-well GF/B UniFilter (PerkinElmer) using a unifilter harvester (PerkinElmer), and counted with a TopCount microplate scintillation counter (PerkinElmer). The IC50 values of inhibitors were determined after carrying out assays at 3-fold serially diluted concentrations of each compound in duplication. The results were analyzed using linear regression software (GraphPad Prism 4; GraphPad Software Inc.).

Assay [4] has as its target T4, B-Raf kinase (Homo sapiens, UniProt P15056).
T4 construct: purchased Upstate Biotechnology
The experiment in a line: B-Raf kinase assay ([33P] incorporation into MEK1(K97R)). In kind it is biochemical. The conditions noted are these: class symbols; 8 μM ATP; read-out: IC50 against B-Raf kinase. The protocol:
as §3, with “B-Raf” for “B-Raf(V600E)”, “MEK1(K97R)” for “MEK1 (K97R)”, “[^33P]ATP” for “[^33P] ATP”, “BSA)” for “BSA), and the test compound (diluted with 4% DMSO) or DMSO alone (as a control)”

Assay [5] concerns the target T5, C-Raf kinase (Homo sapiens, UniProt P04049).
T5 construct: purchased Upstate Biotechnology
The experiment in a line: C-Raf kinase assay ([33P] incorporation into MEK1(K97R)). The conditions noted are these: class symbols; 8 μM ATP; read-out: IC50 against C-Raf kinase. In kind it is biochemical. The protocol:
as §3, with “were 2” for “were 5”, “recombinant C-Raf” for “recombinant B-Raf(V600E)”

The test system of assay [6] is A375 melanoma cells and COLO205 colon cancer cells. In words: Cell proliferation assay (CellTiter-96). In kind it is cell-based. The conditions noted are these: Homo sapiens; A375 or COLO205, 72 hours treatment; read-out: Cytotoxicity IC50 for A375 or COLO205. As for the experimental part: The anti-proliferative activities of compounds of formula (I) against B-Raf(V600E) mutant human cancer cell lines, A375 melanoma cells and COLO205 colon cancer cells, were measured using the CellTiter™-96 assay kit (Promega) following the manufacturer's instructions. In brief, the cells were maintained in DMEM containing 10% FCS and incubated at 37° C. in 5% CO2 atmosphere. Cells were plated at a density of 2,000 cells/well on a 96-well plate and incubated for 24 h. Then, these cells were treated with different concentrations of the test compounds and incubated for another 72 hours. At the end of the incubation, CellTiter™-96 Aqueous One Solution Reagent (Promega) was added and incubated for another 4.0 hours. Cell viability was determined by measuring absorbance at 490 nm using EMax® microplate reader (Molecular Devices). Data were processed and analyzed using GraphPad Prism.

T1 sequence (P00533 712-979 limits assumed): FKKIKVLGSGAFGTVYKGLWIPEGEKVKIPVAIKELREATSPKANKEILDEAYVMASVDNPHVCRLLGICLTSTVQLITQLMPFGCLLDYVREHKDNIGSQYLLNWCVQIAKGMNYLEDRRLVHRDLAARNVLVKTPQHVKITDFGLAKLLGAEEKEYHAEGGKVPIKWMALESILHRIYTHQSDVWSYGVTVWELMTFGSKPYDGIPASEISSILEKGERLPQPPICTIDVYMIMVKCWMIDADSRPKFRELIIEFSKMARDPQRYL
T4 sequence (P15056 whole entry): as the sequence (P15056 whole entry V600E) above, with E600V counted along it
T5 sequence (P04049 whole entry): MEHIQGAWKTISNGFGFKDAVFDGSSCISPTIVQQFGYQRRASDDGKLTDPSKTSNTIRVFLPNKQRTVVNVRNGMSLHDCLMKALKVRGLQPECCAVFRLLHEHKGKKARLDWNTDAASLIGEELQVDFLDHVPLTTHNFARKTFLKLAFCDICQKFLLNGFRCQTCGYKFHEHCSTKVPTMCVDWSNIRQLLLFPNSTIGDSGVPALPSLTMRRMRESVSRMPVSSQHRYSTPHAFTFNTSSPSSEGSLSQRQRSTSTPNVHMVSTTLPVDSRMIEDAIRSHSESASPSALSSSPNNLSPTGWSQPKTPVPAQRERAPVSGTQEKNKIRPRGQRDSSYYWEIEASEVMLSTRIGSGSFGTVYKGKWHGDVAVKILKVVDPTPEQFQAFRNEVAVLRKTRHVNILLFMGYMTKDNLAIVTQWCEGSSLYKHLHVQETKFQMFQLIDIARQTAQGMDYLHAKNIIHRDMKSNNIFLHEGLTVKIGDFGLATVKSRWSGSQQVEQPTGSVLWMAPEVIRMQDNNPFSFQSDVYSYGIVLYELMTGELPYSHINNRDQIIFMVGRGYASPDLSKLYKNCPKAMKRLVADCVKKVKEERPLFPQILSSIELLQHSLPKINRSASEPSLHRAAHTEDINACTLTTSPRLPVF
T2 sequence (P35968 834-1162 limits assumed): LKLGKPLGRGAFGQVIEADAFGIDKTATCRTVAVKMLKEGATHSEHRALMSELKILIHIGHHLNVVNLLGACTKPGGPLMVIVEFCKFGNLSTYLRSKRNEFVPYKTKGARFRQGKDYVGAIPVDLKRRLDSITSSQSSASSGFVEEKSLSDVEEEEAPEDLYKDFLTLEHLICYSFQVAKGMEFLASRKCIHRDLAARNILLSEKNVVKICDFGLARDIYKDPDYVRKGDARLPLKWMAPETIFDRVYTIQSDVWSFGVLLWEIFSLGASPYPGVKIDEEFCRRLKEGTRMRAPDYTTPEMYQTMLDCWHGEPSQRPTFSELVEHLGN

A word on the IC50: it is the midpoint of a concentration-inhibition curve. In the case of `CCCS(=O)(=O)Nc1ccc(F)c(Nc2ncnc3cc(OCCN4CCOCC4)c(-c4cccnc4F)cc23)c1F` [compound 8, N-(2,4-difluoro-3-(6-(2-fluoropyridin-3-yl)-7-(2-morpholinoethoxy)quinazolin-4-ylamino)phenyl)propane-1-sulfonamide], the IC50 in assay [1] (given as bound) was > 3 µM; in assay [2] it was > 3 µM; in assay [3], < 0.3 µM; in assay [4], < 0.3 µM; in assay [5], 0.3 to 1 µM; in assay [6] it was < 2 µM.

With `CCCS(=O)(=O)Nc1ccc(F)c(Nc2ncnc3ccc(-c4cccnc4F)cc23)c1F` [compound 1, N-(2,4-difluoro-3-(6-(2-fluoropyridin-3-yl)quinazolin-4-ylamino)phenyl)propane-1-sulfonamide], the half-inhibitory concentration (IC50) was > 3 µM in assay [1] (given as bound); > 3 µM in assay [2]; < 0.3 µM in assay [3]; < 0.3 µM in assay [4]; < 0.3 µM in assay [5]; < 2 µM in assay [6].

Consider `CCCS(=O)(=O)Nc1ccc(F)c(Nc2ncnc3cc(F)c(-c4cccnc4F)cc23)c1F` [compound 7, N-(2,4-difluoro-3-(7-fluoro-6-(2-fluoropyridin-3-yl)quinazolin-4-ylamino)phenyl)propane-1-sulfonamide], for which the IC50 is > 3 µM in assay [1] (given as bound); > 3 µM in assay [2]; < 0.3 µM in assay [3]; < 0.3 µM in assay [4]; < 0.3 µM in assay [5]; < 2 µM in assay [6].

On to `O=S(=O)(CCCF)Nc1ccc(F)c(Nc2ncnc3ccc(-c4cccnc4F)cc23)c1F` [compound 44, N-(2,4-difluoro-3-(6-(2-fluoropyridin-3-yl)quinazolin-4-ylamino)phenyl)-3-fluoropropane-1-sulfonamide], for which the IC50 was > 3 µM in assay [1] (given as bound); > 3 µM in assay [2]; < 0.3 µM in assay [3]; < 0.3 µM in assay [4]; < 0.3 µM in assay [5]; < 2 µM in assay [6].

For `CCCS(=O)(=O)Nc1ccc(F)c(Nc2ncnc3ccc(-c4cccc(OCCOC)n4)cc23)c1F` [compound 38, N-(2,4-difluoro-3-(6-(6-(2-methoxyethoxy)pyridin-2-yl)quinazolin-4-ylamino)phenyl)propane-1-sulfonamide], the IC50 in assay [1] (class symbols) is 1 to 3 µM; in assay [2], > 3 µM; in assay [3] it was < 0.3 µM; in assay [4], < 0.3 µM; in assay [5], 0.3 to 1 µM; in assay [6], < 2 µM.

As to `CCCS(=O)(=O)Nc1ccc(F)c(Nc2ncnc3ccc(-c4cccc(F)n4)cc23)c1F` [compound 36, N-(2,4-difluoro-3-(6-(6-fluoropyridin-2-yl)-quinazolin-4-ylamino)phenyl)propane-1-sulfonamide], the half-inhibitory concentration (IC50) was 1 to 3 µM in assay [1] (class symbols); > 3 µM in assay [2]; < 0.3 µM in assay [3]; < 0.3 µM in assay [4]; 0.3 to 1 µM in assay [5]; < 2 µM in assay [6].

`CCCS(=O)(=O)Nc1ccc(F)c(Nc2ncnc3ccc(-c4cccnc4F)cc23)c1Cl` [compound 9, N-(2-chloro-4-fluoro-3-(6-(2-fluoropyridin-3-yl)quinazolin-4-ylamino)phenyl)propane-1-sulfonamide]: the half-inhibitory concentration (IC50) in assay [3], in assay [4] and in assay [5] was 1 to 10 µM each time.

In the case of `CCCS(=O)(=O)Nc1ccc(F)c(Nc2ncnc3ccc(-c4cn[nH]c4)cc23)c1F` [compound 4, N-(3-(6-(1H-pyrazol-4-yl)quinazolin-4-ylamino)-2,4-difluorophenyl)propane-1-sulfonamide], the IC50 in assay [1] (class symbols) was 0.3 to 1 µM; in assay [2] it was > 3 µM; in assay [3], < 0.3 µM; in assay [4], < 0.3 µM; in assay [5], < 0.3 µM.

For `CCCS(=O)(=O)Nc1ccc(F)c(Nc2ncnc3ccc(-c4cnc(N(C)C)nc4)cc23)c1F` [compound 51, N-(3-(6-(2-(dimethylamino)pyrimidin-5-yl)quinazolin-4-ylamino)-2,4-difluorophenyl)propane-1-sulfonamide], the results for the half-maximal inhibitory concentration (IC50) in assay [3], in assay [4] and in assay [5] were 0.3 to 1 µM, 0.3 to 1 µM and 1 to 10 µM, respectively.

With `CCCS(=O)(=O)Nc1ccc(F)c(C(=O)c2ncnc3ccc(-c4cccnc4F)cc23)c1F` [compound 48, N-(2,4-difluoro-3-(6-(2-fluoropyridin-3-yl)quinazoline-4-carbonyl)phenyl)propane-1-sulfonamide], the IC50 is > 3 µM in assay [1] (given as bound); > 3 µM in assay [2]; < 0.3 µM in assay [3]; < 0.3 µM in assay [4]; < 0.3 µM in assay [5].

On to `CCCS(=O)(=O)Nc1ccc(F)c(Nc2ncnc3ccc(-c4ccc(N(C)C)nc4)cc23)c1F` [compound 54, N-(3-(6-(6-(dimethylamino)pyridin-3-yl)quinazolin-4-ylamino)-2,4-difluorophenyl)propane-1-sulfonamide], for which the 50% inhibitory concentration (IC50) in assay [3], in assay [4] and in assay [5] was 0.3 to 1 µM each time.

Source of the values: US9321762B2, “Quinazoline compounds, method for preparing the same and use thereof” (DEVELOPMENT CENTER FOR BIOTECHNOLOGY, priority 2013, dated 2016).
